In patent US20250312440A1, “CHEMICAL SCREEN OF MODULATORS FOR VACCINE ADJUVANTS” (THE UNIVERSITY OF CHICAGO, priority 2022, published 2025):

What was measured:
human THP-1 monocytes = experiment: Cytokine level screening in THP-1 cells (AlphaLISA/AlphaPlex, modulator + agonist); format: cell-based
Method: THP-1 cells were seeded at 50,000 cells per well in 45 μL of biotin-free RPMI+5% HI-FBS in clear 384 well plates. Following 24h incubation, 50 nL of 10 mM modulator libraries were added by Janus G3 via pintool to experimental wells (cols 3-22) for a final concentration of 10 μM. After 1 hour, 5 μL of agonist was added via a MultiDrop Combi liquid handler (col 3-23). The following day, 5 μL of supernatant was transferred to white low volume ProxiPlates. 10 μL of a prepared acceptor bead (10 μg/mL final conc), biotinylated antibody (1 nM final conc) mixture was added via liquid handler to the cell supernatant. After 1 hr incubation at RT, 5 μL of donor beads (40 μg/mL final conc) were added in the dark. After an additional 1 hr incubation, plates were read on a plate reader with AlphaPlex filters for europium (615 nm) and terbium (545 nm) emission. A separate plate was run each day containing a standard curve of known analyte for interpolation purposes.
Cytokines and chemokines are a broad category of secreted proteins important for adjuvants in regulating adaptive immunity (23). However, excessive production of cytokines by adjuvants can result in direct tissue damage and are correlated with vaccine tolerability (24, 25). To validate the findings of the primary screening results and to explore the impact on downstream immune outcomes, the inventors measured levels of six cytokines and chemokines involved in inflammation and adaptive responses (IL-12p40, IP-10, IL-1b, CCL4, TNF-α, and IFN-b, Table 4). The inventors measured cytokine expression through AlphaLISA, an assay well-suited to high throughput due to its large dynamic range, in situ measurement, and broad range of cytokines. It has been previously used to investigate small molecule biological inhibitors (26-28).
Cell supernatants were collected and cytokines were measured in three duplex measurements (FIG. 11A). Similarly, the inventors optimized standard curve ranges, crosstalk correction factors, incubation times and other factors of the secondary screen (FIGS. 11B-11D). As in the inventors' primary screen, modulators enhance or inhibit cytokine production among all six cytokines and for each agonist independently (FIGS. 4A-4G, FIG. 11E). The distributions within cytokines vary based on the dynamic range and Z-factor obtained for each cytokine and agonist studied (Table 5). High throughput screening utilizes Z-factors as a proxy for statistical reliability of an assay, due to the dynamic range of the positive controls and the inherent cytokines secreted for each agonist, a Z-factor score greater than zero was not obtained for certain agonists/[…] combinations. Since each agonist produced differing levels of cytokine that were sometimes at the limits of standard curve, amending this assay to a high throughout nature was challenging. […] Since the inventors measured fold-change and reduce dimensionality further in analysis, this approach was adequate to compare compounds within the inventors' dataset for down-selection.
After considering categorical and ranked scoring systems, the inventors decided the best representation of modulator performance would need to preserve cytokine changes but do so by normalizing for each cytokine's and agonist's dynamic range (37). Because of the differences in dynamic range of all the inventors' six cytokines, the inventors sought to normalize the data to ensure no distribution would bias the inventors' results. Thus, the inventors transformed each cytokine's distributions to a range from −1 to 1 (FIG. 5A). Unlike the previous screen, the inventors considered increases and decreases in cytokine responses separately when selecting molecules for vaccination studies. In the vaccine score, a promising candidate would need to produce minimal pro-inflammatory cytokines while increasing IFN-b and chemokine production (24, 25). Additionally, the inventors might prioritize the importance of one cytokine's modulation over another. […]

IL-6 and TNF-α = conditions: with CPG adjuvant; cited from earlier work
TNF-α = experiment: Plasma cytokine analysis 1 hr after OVA vaccination with agonist + modulator; format: in vivo, mice; conditions: 1 hr after vaccination, CpG 50 μg + modulator 1.5 μmol
Method: All animal procedures were performed under a protocol approved by the University of Chicago Institutional Animal Care and Use Committee (IACUC). 6-to-8-week-old C57/B6 female mice were purchased from the Jackson laboratory. All vaccinations were administered intramuscularly in the hind leg. Blood was collected from the submandibular vein at time points indicated.
Mice were lightly anesthetized with isoflurane and injected intramuscularly in the hind leg with an injection volume of 50 μL containing antigen, adjuvant, and a DMSO/AddaVax combination. Antigen dose was as follows: OVA (100 μg)). Agonists doses were as follows: Flagellin, 10 μg; R848, 50 μg; CpG, 50 μg. Modulators were added at 1.5 μmol.
Blood was collected from mice at specified time points in 0.2 mL of heparin-coated collection tubes (VWR Scientific). […] Plasma was analyzed using Bio-Legend's LegendPlex™ Mouse Inflammation Cytokine Panel (13-Plex) according to the manufacturer's protocol. Samples were analyzed using an ACEA NovoCyte Flow Cytometer. Data were analyzed using LEGENDplex™ Data Analysis Software Suite and GraphPad Prism.
The inventors used the vaccine score to select modulators to test in a murine in vivo model. […] The inventors monitored inflammatory cytokine levels one hour following initial injections and monitored antigen specific antibody levels at the indicated timepoints post-boost (FIG. 6A). […]

[1] = THP-1, 10 μM modulator, across agonists
[2] = THP-1, 10 μM modulator, across receptors studied

Cc1ccc(NC(=O)c2ccc(CN3CC[C@H](N(C)C)C3)c(C(F)(F)F)c2)cc1Nc1nccc(-c2cncnc2)n1 [Bafetinib]
difference in enhancement of IP-10 and IFN-b between agonists (human THP-1 monocytes; Pam3, Pam2 vs cGAMP): ~2 orders of magnitude

CS[C@@]1(C(=O)Nc2ccc3[nH]nc(-c4ccc(OC(C)C)nc4)c3c2)CCN(CC(=O)N2CC=C(c3ccc(-c4ncn(C)n4)cc3)CC2)C1 [MK-8353]
IFN-b production, modulator+agonist vs agonist alone (human THP-1 monocytes; [1]): ablates | IL-12 production, modulator+agonist vs agonist alone (human THP-1 monocytes; [1]): ablates | IP-10 production, modulator+agonist vs agonist alone (human THP-1 monocytes; [1]): ablates | IL-1b enhancement (human THP-1 monocytes; [2]): up to 100 fold | TNF-α enhancement (human THP-1 monocytes; [2]): up to 100 fold

CN(C)c1ccc2c(c1)Sc1cc(N(C)C)ccc1N2.CS(=O)(=O)O.CS(=O)(=O)O [TRx0237(LMTX) mesylate]
IFN-b production, modulator+agonist vs agonist alone (human THP-1 monocytes; [1]): enhance IFN-b secretion across all agonists studied | TNF-α enhancement using cGAMP (human THP-1 monocytes; THP-1, 10 μM modulator, cGAMP): up to 36 fold

COc1cc(CNC(=O)CCCC/C=C/C(C)C)ccc1O [capsaicin]
pro-inflammatory systemic IL-6 and TNF-α levels (IL-6 and TNF-α): reduce

CN1CCN(C2CCN(C(=O)Nc3cc(Oc4ccc(NC(=O)C5(C(=O)Nc6ccc(F)cc6)CC5)c(F)c4)ccn3)CC2)CC1 [compound 2, Golvatinib]
systemic TNF-α for CpG (TNF-α): ~0

O=c1cc(-c2cccc3c2Sc2ccccc2S3)oc(N2CCOCC2)c1 [compound 3]
systemic TNF-α for CpG (TNF-α): ~0

C=CCc1ccc(O)c(-c2ccc(O)c(CC=C)c2)c1 [honokiol]
pro-inflammatory systemic IL-6 and TNF-α levels (IL-6 and TNF-α): reduce
